Measured values from patent US20230044787A1, “TRICYCLE DIHYDROIMIDAZOPYRIMIDONE DERIVATIVE, PREPARATION METHOD THEREOF, PHARMACEUTICAL COMPOSITION AND USE THEREOF” (priority 2019, published 2023).

These compounds were tested against T1, Lp-PLA2 (Homo sapiens, UniProt Q13093) (assay: Lipoprotein-associated phospholipase A2 (Lp-PLA2) human plasma assay (Thio-PAF assay)). Conditions: Lp-PLA2 human plasma assay (Thio-PAF), pooled human plasma, 30-min pre-incubation at room temperature.
T1 construct: aliquoted and thawed 40 μL of pooled human plasma was previously added; from tissue; host or cells: pooled human plasma
T1 sequence (Q13093 22-441): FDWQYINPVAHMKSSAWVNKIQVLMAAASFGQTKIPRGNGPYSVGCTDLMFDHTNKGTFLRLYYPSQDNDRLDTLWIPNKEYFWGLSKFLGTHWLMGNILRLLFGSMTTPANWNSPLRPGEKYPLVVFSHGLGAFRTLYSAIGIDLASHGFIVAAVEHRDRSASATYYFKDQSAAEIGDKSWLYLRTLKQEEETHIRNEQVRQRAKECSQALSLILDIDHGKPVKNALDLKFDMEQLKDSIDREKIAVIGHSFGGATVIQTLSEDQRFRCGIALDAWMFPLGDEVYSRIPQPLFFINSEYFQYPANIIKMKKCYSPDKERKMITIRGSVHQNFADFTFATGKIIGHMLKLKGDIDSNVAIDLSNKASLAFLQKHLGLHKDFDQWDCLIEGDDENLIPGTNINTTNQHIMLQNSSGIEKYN
Assay type: biochemical
Procedure: Lipoprotein-Associated Phospholipase A2 (Lp-PLA2) Human Plasma Assay
The amount of sulfhydryl groups is continuously determined by the reaction with CPM (7-diethylamino-3-(4′-maleimidophenyl)-4-methylcoumarin), and the CPM is a maleimide of which fluorescence increases after Michael addition of sulfhydryl group. This assay can detect Lp-PLA2 activity in human plasma, as determined by specific inhibition of Lp-PLA2 inhibitors.
Thio-PAF assay was performed as quenched 75 μL assay. Compound source plate was prepared for each compound by preparing 1:3 (by volume) serial dilutions in pure DMSO in a 96-well microplate. The compound on the source plate was diluted 20-fold by transferring 3 μL of the compound from the compound source plate into a 96-well microplate pre-added with 57 μL of assay buffer by Rainin multichannel pipette. The assay buffer described above consisted of 50 mM HEPES, pH 7.4, 150 mM NaCl, 1 mM CHAPS. 1 μL of the 20-fold diluted compound was transferred by Rainin multichannel pipette into a 96-well Greiner 655076 (black) microplate to which aliquoted and thawed 40 μL of pooled human plasma was previously added. The plate was shaken for 20 seconds on a microplate shaker to mix well. After a 30-min pre-incubation at room temperature, 10 μL of substrate solution was added to the 96-well Greiner 655076 (black) microplate by Rainin multichannel pipette, in which the substrate solution contained 2.5 mM 2-thio-PAF [from ethanol stock], 32 μM CPM [from DMSO stock], and 3.2 mM NEM (N-ethylmaleimide) [freshly prepared in DMSO per experiment] in assay buffer consisting of 50 mM HEPES, pH 7.4; 150 mM NaCl; 1 mM CHAPS. After 2 min, the reaction was quenched with […] of 5% trifluoroacetic acid (TFA) in water. The plate was centrifuged at 2000 rpm for 1 minute. The plate was read at ex:380/em:485 using a Biotek Synergy H1 (H1MF) microplate reader. IC50 data, curves and QC analysis were performed using GraphPad Prism 6.0 and Excel.

Row | SMILES | IC50 [nM]
1 | CC12CCCN1c1cc(OCc3cc(F)c(Oc4cnc(C(F)(F)F)nc4)c(F)c3)nc(=O)n1C2 (stereo not shown) [Example 56, 3-((3,5-difluoro-4-((2-(trifluoromethyl)pyrimidin-5-yl)oxy)benzyl)oxy)-8a-methyl-7,8,8a,9-tetrahydro-1H,6H-pyrrolo[1′,2′:3,4]imidazo [1,2-c]pyrimidin-1-one] | 7.7
2 | O=c1nc(OCc2ccc(Oc3ccnc(C(F)F)c3)cc2)cc2n1CC13CC(CN21)C3 [Example 161] | 18.1
3 | CC12COCCN1c1cc(OCc3cc(F)c(Oc4ccnc(C(F)(F)F)c4)c(F)c3)nc(=O)n1C2 (stereo not shown) [Example 78, 7-((3,5-difluoro-4-((2-(trifluoromethyl)pyridin-4-yl)oxy)benzyl)oxy)-11a-methyl-3,4,11,11a-tetrahydro-1H,9H-pyrimido[6′,1′:2,3]imidazo [5,1-c][1,4]oxazin-9-one] | 5
4 | O=c1nc(OCc2cc(F)c(Oc3ccnc(C(F)(F)F)c3)c(F)c2)cc2n1C[C@]13CO[C@H](CN21)C3 [Example 1] | 4.4
5 | O=c1nc(OCCc2ccc(Oc3ccnc(C(F)(F)F)c3)cc2)cc2n1CC13CC(CN21)C3 [Example 111, 3-(4-((2-(trifluoromethyl)pyridin-4-yl)oxy)phenethoxy)-7,8-dihydro-1H,6H,9H-7,8a-methanopyrrolo[1′,2′:3,4] imidazo[1,2-c]pyrimidin-1-one] | 11.4
6 | O=c1nc(OCc2ccc(F)c(F)c2)cc2n1C[C@]13CO[C@H](CN21)C3 [Example 25, (3S,11aR)-7-((3,4-trifluorobenzyl)oxy)-3,4-dihydro-1H,9H,11H-3,11a-methanopyrimido[6′,1′:2,3] imidazo[5,1-c][1,4]oxazin-9-one] | 10.4
7 | O=c1nc(OCc2cc(F)c(Oc3ccccc3)c(F)c2)cc2n1C[C@]13CO[C@H](CN21)C3 [Example 135, (3S,11aR)-7-((3,5-difluoro-4-phenoxybenzyl)oxy)-3,4-dihydro-1H,9H,11H-3,11a-methanopyrimido[6′,1′:2,3] imidazo[5,1-c][1,4]oxazin-9-one] | 17.2
8 | O=c1nc(OCc2cc(F)c(Oc3ccnc(Cl)c3)c(F)c2)cc2n1C[C@]13CO[C@H](CN21)C3 [Example 6, (3S,11aR)-7-((4-((2-chloropyridin-4-yl)oxy)-3,5-difluorobenzyl)oxy)-3,4-dihydro-1H,9H,11H-3,11a-methanopyrimido[6′,1′:2,3] imidazo[5,1-c][1,4]oxazin-9-one] | 4.9
9 | O=c1nc(OCCc2cc(F)c(Oc3ccnc(C(F)(F)F)c3)c(F)c2)cc2n1CC13CC(CN21)C3 [Example 169, 3-(3,5-Difluoro-4-((2-(trifluoromethyl)pyridin-4-yl)oxy)phenethoxy)-7,8-dihydro-1H1,6H1,9H-7,8a-methanopyrrolo[1′, 2′:3, 4]imidazo[1,2-c]pyrimidin-1-one] | 4.9
10 | N#Cc1cc(CCOc2cc3n(c(=O)n2)C[C@]24CO[C@H](CN32)C4)ccc1Oc1ccnc(C(F)(F)F)c1 [Example 101, 5-(2-(((3S,11aR)-9-oxo-3,4-dihydro-1H,9H,11H-3,11a-methanopyrimido[6′-,1′:2,3]imidazo[5,1-c][1,4]oxazin-7-yl)oxy)ethyl)-2-((2-(trifluoromethyl)pyridin-4-yl)oxy)benzonitrile] | 15.1
11 | O=c1nc(OCc2cc(F)c(Oc3cnc(C(F)(F)F)nc3)c(F)c2)cc2n1C[C@]13CO[C@H](CN21)C3 [Example 7, (3S,11aR)-7-((3,5-difluoro-4-((2-(trifluoromethyl)pyrimidin-5-yl)oxy)benzyl)oxy)-3,4-dihydro-1H,9H,11H-3,11a-methanopyrimido[6′,1′:2,3] imidazo[5,1-c][1,4]oxazin-9-one] | 2.5
12 | O=c1nc(OCc2cc(F)c(Oc3ccc(Cl)c(C(F)(F)F)c3)c(F)c2)cc2n1C[C@@]13CO[C@@H](CN21)C3 [Example 27, (3R,11aS)-7-((4-(4-chloro-3-(trifluoromethyl)phenoxy)-3,5-difluorobenzyl)oxy)-3,4-dihydro-1H,9H,11H-3,11a-methanopyrimido[6′,1′:2,3] imidazo[5,1-c][1,4]oxazin-9-one] | 2.5
13 | O=C(NCc1ccccc1)C12CN3c4cc(OCc5ccc(Oc6ccnc(C(F)(F)F)c6)c(F)c5)nc(=O)n4CC3(C1)C2 [Example 199, N-benzyl-3-((3-fluoro-4-((2-(trifluoromethyl)pyridin-4-yl)oxy)benzyl)oxy)-1-oxo-1H,6H, 9H-7,8a-methanopyrrolo[1′,2′:3,4]imidazo [1,2-c]pyrimidine-7(8H)-carboxamide] | 7.9

More lines, now with the values ahead:

Row | IC50 [nM] | SMILES
14 | 2.7 | O=c1nc(OCc2ccc(Oc3ccc(F)c(F)c3)c(F)c2)cc2n1C[C@]13CO[C@H](CN21)C3 [Example 146, (3S,11aR)-7-((4-(3,4-difluorophenoxy)-3-fluorobenzyl)oxy)-3,4-dihydro-1H,9H,11H-3,11a-methanopyrimido[6′,1′:2,3] imidazo[5,1-c][1,4]oxazin-9-one]
15 | 3.6 | O=c1nc(OCc2ccc(Oc3ccnc(OC(F)(F)F)c3)c(F)c2)cc2n1CC13CCC(CC1)N23 [Example 154, 3-((3-fluoro-4-((2-(trifluoromethoxy)pyridin-4-yl)oxy)benzyl)oxy)-7,8-dihydro-1H,6H,9H-6,8a-ethanopyrrolo[1′,2′:3,4] imidazo[1,2-c]pyrimidin-1-one]
16 | 5.7 | O=c1nc(OCCc2ccc(Oc3ccnc(C(F)(F)F)c3)c(F)c2)cc2n1C[C@]13CO[C@H](CN21)C3 [Example 156]
17 | 6.7 | O=c1nc(OCCc2ccc(Oc3cccc(C(F)(F)F)c3)c(F)c2)cc2n1C[C@]13CO[C@H](CN21)C3 [Example 181, (3S,11aR)-7-(3-fluoro-4-(3-(trifluoromethyl)phenoxy)phenethoxy)-3,4-dihydro-1H,9H, 11H-3,11a-methanopyrimido[6′,1′:2,3]imidazo [5,1-c][1,4]oxazin-9-one]
18 | 4.8 | O=c1nc(OCc2ccc(Oc3ccc(C(F)(F)F)cc3)c(F)c2)cc2n1CC13CCC(CC1)N23 [Example 130, 3-((3-fluoro-4-(4-(trifluoromethyl)phenoxy)benzyl)oxy)-7,8-dihydro-1H,6H,9H-6,8a-ethanopyrrolo[1′,2′:3,4] imidazo[1,2-c]pyrimidin-1-one]
19 | 5.8 | O=c1nc(OCc2ccc(Oc3ccnc(C(F)(F)F)c3)c(F)c2)cc2n1CC13CC(CN4CCOCC4)(CN21)C3 [Example 166, 3-((3-fluoro-4-((2-(trifluoromethyl)pyridin-4-yl)oxy)benzyl)oxy)-7-(morpholinomethyl)-7,8-dihydro-1H,6H,9H-7,8a-methanopyrrolo[1′,2′:3,4] imidazo[1,2-c]pyrimidin-1-one]
20 | 5.1 | O=c1nc(OCc2cc(F)c(Oc3ccnc(C(F)(F)F)c3)c(F)c2)cc2n1CC13CCC(COC1)N23 (stereo not shown) [Example 112, 7-((3,5-difluoro-4-((2-(trifluoromethyl)pyridin-4-yl)oxy)benzyl)oxy)-3,4-dihydro-1H,9H,11H-4,11a-ethanopyrimido[6′,1′:2,3] imidazo[5,1-c][1,4]oxazin-9-one]
21 | 32.4 | O=c1nc(OCc2ccc(Oc3ccc(F)c(C(F)(F)F)c3)nc2)cc2n1C[C@]13CO[C@H](CN21)C3 [Example 17, (3S,11aR)-7-((6-(4-fluoro-3-(trifluoromethyl)phenoxy)pyridin-3-yl)methoxy)-3,4-dihydro-1H,9H,11H-3,11a-methanopyrimido[6′,1′:2,3] imidazo[5,1-c][1,4]oxazin-9-one]
22 | 2.2 | O=c1nc(OCc2ccc(Oc3ccnc(C(F)(F)F)c3)c(F)c2)cc2n1C[C@@]13C[C@@H](CN21)N(C1COC1)C3 [Example 172]
